# From patent publication US12215104B2, “Anti-biofilm compounds” (UNIVERSITY OF LOUISVILLE RESEARCH FOUNDATION, INC., priority 2018, dated 2025)
# Tested on: P. gingivalis adherence to S. gordonii
# Assay: Inhibition of P. gingivalis adherence to S. gordonii in two-species biofilm model
# Assay type: cell-based, P. gingivalis ATCC33277; S. gordonii DL-1
# Conditions: Group III
# Text: To assess the functional activity of the click products, compounds 28-57 (Groups I and II) and 90-124 (Group III) were examined for inhibition of P. gingivalis adherence to S. gordonii using an established biofilm model system as described in the Section 4.2.1 [41]. For each compound tested, an IC50 value for adherence inhibition was approximated after quantifying the ratio of green to red fluorescence and these values are shown in Tables 2, 3 and 4. Compounds were classified as strong (IC50<10 μM), moderate (IC50=10-20 μM) or weak (IC50>20 μM) inhibitors of adherence. Twelve compounds were identified as strong inhibitors and an additional ten compounds were classified as moderate inhibitors. […] Compounds 54, 56, 93, 95, 100, 102, 103, and 115 were also tested to determine if they affect the growth of P. gingivalis or S. gordonii. […] The sulfoxide group does impart asymmetry to the molecule; however, the mixture of enantiomers, assuming the peracid oxidation was racemic, was not separated and bioassayed. The Group III active compounds (95-117) all contain the 1,3,5-trisubstituted-2,4,6-triazine modeled after the Katzenellenbogen rendering of an active motif whereby the key leucine residues which mimicked the VXXLL receptor box lie in a triangular arrangement. While the original iteration of the Katzenellenbogen VXXLL mimics were the hydrophobic 3,5-disubstituted-di-N-alkyamino-triazine motifs, we introduced the hydrophobic 2- and 4-(fluorophenyl)amino groups at positions 3 and 5 of the 2,4,6-triazine (See Compounds 102, 111, 115, 122).
# P. gingivalis ATCC33277 was grown in reduced trypticase soy broth (Difco) supplemented with 0.5 percent yeast extract, 1 μg/mL menadione, and 5 μg/mL hemin. Twenty five milliliters of medium were reduced for 24 h under anaerobic conditions by equilibrating in an atmosphere consisting of 10% CO2, 10% H2, and 80% N2. Following equilibration, P. gingivalis was inoculated in the media and grown for 48 h at 37° C. under anaerobic conditions. S. gordonii DL-1 (1) was cultured aerobically without shaking in brain heart infusion (BHI) broth supplemented with 1 percent yeast extract for 16 hours at 37° C. For some compounds that inhibited P. gingivalis adherence to S. gordonii, we determined their affect the planktonic growth of P. gingivalis and S. gordonii. Broth cultures were grown as described above and compared to cultures grown in the absence of the compound. Cell density of each culture was determined by measuring the optical density at 600 nm (O.D.600 nm) after 24 h of growth. The percent growth inhibition/stimulation was calculated using the following equation: [(O.D.600 nm of the control/O.D.600 nm of the culture grown in the presence of compound)−1]×100.
# Two species biofilms were formed essentially as previously described. To prepare bacterial cells for biofilm culture, 10 ml of an overnight S. gordonii culture was centrifuged at 5600 rpm for 5 min and the cell pellet was suspended in 1 mL sterile PBS. Subsequently, 20 μL of 5 mg/ml hexidium iodide (Molecular Probes) was added to the cell suspension and incubated for 15 min with gentle shaking at room temperature in the dark. The labeled cells were centrifuged as described above, washed with phosphate buffered saline (10 mM Na2HPO4, […], […], and 2.7 mM KCl, pH 7.2; [PBS]) and the cell pellet was suspended in PBS at a final O.D.600 nm of 0.8. Similarly, 10 mL of a 48 h culture of P. gingivalis was centrifuged at 5600 rpm for 15 min, the cell pellet was suspended in 1 mL PBS and 20 μl of 5(6)-carboxyfluorescein N-hydroxysuccinimide ester (4 mg/ml, Molecular Probes, Inc.) was added. After incubation for 30 min with gentle shaking at room temperature in the dark, the suspension was centrifuged and washed as described above and suspended in PBS at a final O.D.600 nm of 0.4. […]
row,Structure (SMILES),IC50 [µM]
1,Fc1ccccc1Nc1nc(Nc2ccccc2F)nc(-c2cn(-c3ccc(-c4nc(-c5ccco5)c(-c5ccco5)o4)cc3)nn2)n1 [Compound 109],> 60
2,Fc1ccc(Nc2nc(Nc3ccc(F)cc3)nc(-c3cn(-c4ccc(-c5nc(-c6ccco6)c(-c6ccco6)o5)cc4)nn3)n2)cc1 [Compound 124],7.8
3,Fc1ccc(Nc2nc(Nc3ccc(F)cc3)nc(-c3cn(-c4ccccc4-c4nc(-c5ccc(Cl)cc5)c(-c5ccc(Cl)cc5)o4)nn3)n2)cc1 [Compound 116],> 40
4,Fc1ccc(Nc2nc(Nc3ccc(F)cc3)nc(-c3cn(-c4ccccc4-c4nc(-c5ccccc5)c(-c5ccccc5)o4)nn3)n2)cc1 [Compound 110],> 60
5,CCN(CC)c1nc(-c2cn(-c3cccc(-c4nc(-c5ccc(Cl)cc5)c(-c5ccc(Cl)cc5)o4)c3)nn2)nc(N(CC)CC)n1 [Compound 94],16
6,Fc1ccc(Nc2nc(Nc3ccc(F)cc3)nc(-c3cn(-c4ccc(-c5nc(-c6ccccc6)c(-c6ccccc6)o5)cc4)nn3)n2)cc1 [Compound 112],> 60
7,COc1ccc(-c2nc(-c3cccc(-n4cc(-c5nc(Nc6ccccc6F)nc(Nc6ccccc6F)n5)nn4)c3)oc2-c2ccc(OC)cc2)cc1 [Compound 106],> 60
8,COc1ccc(-c2nc(-c3cccc(-n4cc(-c5nc(Nc6ccc(F)cc6)nc(Nc6ccc(F)cc6)n5)nn4)c3)oc2-c2ccc(OC)cc2)cc1 [Compound 120],> 60
9,CCN(CC)c1nc(-c2cn(-c3ccc(-c4nc(-c5ccc(OC)cc5)c(-c5ccc(OC)cc5)o4)cc3)nn2)nc(N(CC)CC)n1 [Compound 97],36.6
10,CCN(CC)c1nc(-c2cn(-c3cccc(-c4nc(-c5ccc(F)cc5)c(-c5ccc(F)cc5)o4)c3)nn2)nc(N(CC)CC)n1 [Compound 92],> 60
11,Fc1ccccc1Nc1nc(Nc2ccccc2F)nc(-c2cn(-c3cccc(-c4nc(-c5ccco5)c(-c5ccco5)o4)c3)nn2)n1 [Compound 108],> 60
12,Fc1ccccc1Nc1nc(Nc2ccccc2F)nc(-c2cn(-c3cccc(-c4nc(-c5ccc(Cl)cc5)c(-c5ccc(Cl)cc5)o4)c3)nn2)n1 [Compound 104],33.8
13,Fc1ccc(Nc2nc(Nc3ccc(F)cc3)nc(-c3cn(-c4ccccc4-c4nc(-c5ccc(F)cc5)c(-c5ccc(F)cc5)o4)nn3)n2)cc1 [Compound 113],49.2
14,CCN(CC)c1nc(-c2cn(-c3ccc(-c4nc(-c5ccccc5)c(-c5ccccc5)o4)cc3)nn2)nc(N(CC)CC)n1 [Compound 91],> 60
15,Fc1ccc(Nc2nc(Nc3ccc(F)cc3)nc(-c3cn(-c4cccc(-c5nc(-c6ccc(Cl)cc6)c(-c6ccc(Cl)cc6)o5)c4)nn3)n2)cc1 [Compound 117],27.8
16,CCN(CC)c1nc(-c2cn(-c3cccc(-c4nc(-c5ccco5)c(-c5ccco5)o4)c3)nn2)nc(N(CC)CC)n1 [Compound 98],> 60
17,Fc1ccccc1Nc1nc(Nc2ccccc2F)nc(-c2cn(-c3ccc(-c4nc(-c5ccccc5)c(-c5ccccc5)o4)cc3)nn2)n1 [Compound 101],> 60
18,Fc1ccc(Nc2nc(Nc3ccc(F)cc3)nc(-c3cn(-c4ccc(-c5nc(-c6ccc(Cl)cc6)c(-c6ccc(Cl)cc6)o5)cc4)nn3)n2)cc1 [Compound 118],13.3
19,Fc1ccccc1Nc1nc(Nc2ccccc2F)nc(-c2cn(-c3ccc(-c4nc(-c5ccc(Cl)cc5)c(-c5ccc(Cl)cc5)o4)cc3)nn2)n1 [Compound 105],> 60
20,CCN(CC)c1nc(-c2cn(-c3ccc(-c4nc(-c5ccco5)c(-c5ccco5)o4)cc3)nn2)nc(N(CC)CC)n1 [Compound 99],> 60
21,COc1ccc(-c2nc(-c3ccccc3-n3cc(-c4nc(Nc5ccc(F)cc5)nc(Nc5ccc(F)cc5)n4)nn3)oc2-c2ccc(OC)cc2)cc1 [Compound 119],> 60
22,CCN(CC)c1nc(-c2cn(-c3cccc(-c4nc(-c5ccccc5)c(-c5ccccc5)o4)c3)nn2)nc(N(CC)CC)n1 [Compound 90],20.7

# Same assay, conditions: Table 2, Group I triazoles; concentration reducing ratio of green (P. gingivalis) to red (S. gordonii) fluorescence by 50%; approximated
row,Structure (SMILES),IC50 [µM]
1,O=S(=O)(Cc1nc(-c2ccccc2)c(-c2ccccc2)o1)c1ccc(-n2cc(-c3ccc(F)cc3)nn2)cc1 [Compound 38],15.7
2,"[O-][S+](Cc1nc(-c2ccccc2)c(-c2ccccc2)o1)c1ccc(-n2cc(-c3cccnc3)nn2)cc1 (racemic) [Compound 28, 4,5-Diphenyl-2-(((4-(4-(pyridin-3-yl)-1H-1,2,3-triazol-1-yl)phenyl)sulfinyl)methyl) oxazole]",> 60
3,COc1ccccc1-c1cn(-c2ccc(S(=O)(=O)Cc3nc(-c4ccccc4)c(-c4ccccc4)o3)cc2)nn1 [Compound 40],13.1
4,[O-][S+](Cc1nc(-c2ccccc2)c(-c2ccccc2)o1)c1ccc(-n2cc(-c3cc(C(F)(F)F)cc(C(F)(F)F)c3)nn2)cc1 (centres unmarked) [Compound 36],> 60
5,[O-][S+](Cc1nc(-c2ccccc2)c(-c2ccccc2)o1)c1ccc(-n2cc(-c3ccccc3C(F)(F)F)nn2)cc1 (centres unmarked) [Compound 32],> 60
6,O=S(=O)(Cc1nc(-c2ccccc2)c(-c2ccccc2)o1)c1ccc(-n2cc(-c3cccnc3)nn2)cc1 [Compound 37],> 60
7,O=S(=O)(Cc1nc(-c2ccccc2)c(-c2ccccc2)o1)c1ccc(-n2cc(-c3ccccc3C(F)(F)F)nn2)cc1 [Compound 41],> 60
8,COc1ccc2cc(-c3cn(-c4ccc(S(=O)(=O)Cc5nc(-c6ccccc6)c(-c6ccccc6)o5)cc4)nn3)ccc2c1 [Compound 42],> 60
9,O=S(=O)(Cc1nc(-c2ccccc2)c(-c2ccccc2)o1)c1ccc(-n2cc(-c3ccc(Oc4ccccc4)cc3)nn2)cc1 [Compound 44],16.5
10,COc1ccc2cc(-c3cn(-c4ccc([S+]([O-])Cc5nc(-c6ccccc6)c(-c6ccccc6)o5)cc4)nn3)ccc2c1 (centres unmarked) [Compound 33],> 60
11,O=S(=O)(Cc1nc(-c2ccccc2)c(-c2ccccc2)o1)c1ccc(-n2cc(-c3cccc(F)c3)nn2)cc1 [Compound 39],33.6
12,COc1ccccc1-c1cn(-c2ccc([S+]([O-])Cc3nc(-c4ccccc4)c(-c4ccccc4)o3)cc2)nn1 (centres unmarked) [Compound 31],> 60
13,[O-][S+](Cc1nc(-c2ccccc2)c(-c2ccccc2)o1)c1ccc(-n2cc(-c3ccc(Oc4ccccc4)cc3)nn2)cc1 (centres unmarked) [Compound 35],> 60
14,O=S(=O)(Cc1nc(-c2ccccc2)c(-c2ccccc2)o1)c1ccc(-n2cc(-c3cc(C(F)(F)F)cc(C(F)(F)F)c3)nn2)cc1 [Compound 45],38.5
15,[O-][S+](Cc1nc(-c2ccccc2)c(-c2ccccc2)o1)c1ccc(-n2cc(-c3ccc(F)cc3)nn2)cc1 (centres unmarked) [Compound 29],> 60

# Same assay, conditions: Table 3, Group II click products; concentration reducing green to red fluorescence ratio by 50%; approximated
row,Structure (SMILES),IC50 [µM]
1,COc1ccccc1-c1cn(-c2ccc([S+]([O-])Cc3nc(-c4ccc(F)cc4)c(-c4ccc(F)cc4)o3)cc2)nn1 (centres unmarked) [Compound 48],7.2
2,[O-][S+](Cc1nc(-c2ccc(F)cc2)c(-c2ccc(F)cc2)o1)c1ccc(-n2cc(-c3cccc(F)c3)nn2)cc1 (centres unmarked) [Compound 46],5.3
3,[O-][S+](Cc1nc(-c2ccc(Cl)cc2)c(-c2ccc(Cl)cc2)o1)c1ccc(-n2cc(-c3ccc(F)cc3)nn2)cc1 (centres unmarked) [Compound 50],39.8
4,COc1ccccc1-c1cn(-c2ccc([S+]([O-])Cc3nc(-c4ccc(Cl)cc4)c(-c4ccc(Cl)cc4)o3)cc2)nn1 (centres unmarked) [Compound 51],10.2
5,O=S(=O)(Cc1nc(-c2ccc(Cl)cc2)c(-c2ccc(Cl)cc2)o1)c1ccc(-n2cc(-c3cccc(F)c3)nn2)cc1 [Compound 55],18.2
6,[O-][S+](Cc1nc(-c2ccc(F)cc2)c(-c2ccc(F)cc2)o1)c1ccc(-n2cc(-c3ccc(F)cc3)nn2)cc1 (centres unmarked) [Compound 47],35.9

# Same assay, conditions: read-out: IC50 for inhibition of adherence of P. gingivalis to S. gordonii
row,Structure (SMILES),IC50 [µM]
1,Fc1ccc(Nc2nc(Nc3ccc(F)cc3)nc(-c3cn(-c4cccc(-c5nc(-c6ccc(Cl)cc6)c(-c6ccc(Cl)cc6)o5)c4)nn3)n2)cc1 [Compound 117],2.3 to 5.3
